Results: patent US20200237852A1, “Small Molecule Enhancers of Paneth Cell Function and Differentiation” (Massachusetts Institute of Technology, priority 2019, published 2020)

Columns and labels:
Format in all cases: cell-based, C57BL/6 mice
[1] = test system: ISC-enriched organoids in ENR+CD; test: 384-well secondary screen in ENR+CD incl. early vs. full treatment, secreted LYZ (LYZ.NS, LYZ.S)
From the text: (§1) We again assessed treatment effect size with replicate SSMD (using a difference between well replicates and median assay value for all same-plate control wells—see Materials and Methods, High-throughput screening: 384-well secondary screen format and early vs. full treatment analysis) and hits were considered statistically validated by an SSMD greater than the false-positive-derived cutoffs (βα1=0.89 for 8 replicates with alpha=0.05; see Materials and Methods, High-throughput screening: 384-well secondary screen format and early vs. full treatment analysis) for both LYZ.NS and LYZ.S assays (FIG. 7A). Per this new cutoff, 10 dose-treatment combinations corresponding to 7 small molecules were chosen as hits, with every passing dose-treatment having a greater than 0 ATP effect size.
For 384-well plate high-throughput screening, ISC-enriched organoids were passaged and split to single cells with TyrpLE (Thermo Fisher Scientific) and cultured for 2-3 days in ENR+CVY prior to transfer to a “2.5-D” 384-well plate culture system. To prepare for “2.5D” plating, cell-laden Matrigel and media were homogenized via mechanical disruption and centrifuged at 300 g for 3 min at 4° C. Supernatant was removed and the pellet washed and spun in basal culture medium repeatedly until the cloudy Matrigel above the cell pellet was gone. On the final wash, pellet was resuspended in basal culture medium, the number of organoids counted, and the cell pellet was resuspended in ENR+CD medium at ˜7 clusters/μL. 384-well plates were first filled with 10 μL of 70% Matrigel (30% basal media) coating in each well using a Tecan Evo 150 Liquid Handling Deck, and allowed to gel at 37° C. for 5 minutes. Then 30 μL of cell-laden media was plated at the center of each well of 384-well plates with the liquid handler, and the plates were spun down at 50 g for 1 minute to embed organoids on the Matrigel surface. Compound libraries were pinned into prepped cell plates using 50 nL pins into 30 μL media/well. Cells were cultured at 37° C. with 5% CO2 for six days in ENR+CD medium supplemented with the tested compounds with a media change at three days. On day six, lysozyme secretion and cell viability were assessed using Lysozyme Assay Kit (EnzChek) and CellTiter-Glo 3D Cell Viability Assay (Promega), respectively, according to the manufacturers' protocols. Briefly, screen plates were washed 3× with FluoroBrite basal media (2 mM GlutaMAX and 10 mM HEPES in FluoroBrite DMEM (Thermo Fisher Scientific)) using a BioTek 406 plate washer with 10 min incubations followed by a 1 min centrifugation at 200 g to settle media between washes. After removal of the third wash, 30 μL of non-stimulated FluoroBrite basal media was added to each screen well using a Tecan Evo 150 Liquid Handling Deck from a non-stimulated treatment master plate, and plates were incubated for 30 min at 37° C. After 30 minutes, the top 15 μL of media from each well of the screen plate was transferred to a non-stimulated LYZ assay plate containing 15 μL of 20× DQ LYZ assay working solution using a Tecan Evo 150 Liquid Handling Deck. The non-stimulated LYZ assay plate was covered, shaken for 10 min, incubated for 50 min at 37° C., then fluorescence measured (shake 10 s; […]/518 nm) using a Tecan M1000 Plate Reader. After the media transfer to the non-stimulated LYZ assay plate, the remaining media was removed from the screen plate and 30 μL of Stimulated FluoroBrite basal media (supplemented with 10 μM CCh) was added to each screen well using a Tecan Evo 150 Liquid Handling Deck from a stimulated treatment master plate, and plates were incubated for 30 min at 37° C. After 30 minutes, the top 15 μL of media from each well of the screen plate was transferred to a stimulated LYZ assay plate containing 15 μL of 20× DQ LYZ assay working solution using a Tecan Evo 150 Liquid Handling Deck. […]

[2] = test system: ISC-enriched organoids in ENR+CD; test: 384-well secondary screen in ENR+CD, ATP assay; details: 100 nM
From the text: as §1, with “Per this new cutoff, 10 dose-treatment combinations corresponding to 7 small molecules were chosen as hits, with every passing dose-treatment having a greater than 0 ATP effect size.” left out
For 384-well plate high-throughput screening, ISC-enriched organoids were passaged and split to single cells with TyrpLE (Thermo Fisher Scientific) and cultured for 2-3 days in ENR+CVY prior to transfer to a “2.5-D” 384-well plate culture system. […] On the final wash, pellet was resuspended in basal culture medium, the number of organoids counted, and the cell pellet was resuspended in ENR+CD medium at ˜7 clusters/μL. […] On day six, lysozyme secretion and cell viability were assessed using Lysozyme Assay Kit (EnzChek) and CellTiter-Glo 3D Cell Viability Assay (Promega), respectively, according to the manufacturers' protocols. […]

[3] = test system: conventional organoid (ENR); test: 384-well screen in conventional organoid (ENR), secreted LYZ (LYZ.NS, LYZ.S); details: 6-day ENR+treatment, single treatment-dose
[4] = test system: ENR+CD organoids; test: Flow cytometry analysis, 3D culture, XPO1 inhibitors; details: 6-day ENR+CD organoids
Protocol: ISC-enriched organoids cultured in 3D Matrigel with ENRCV media were passaged to 24-well plate in 3D Matrigel with ENRCV. At day zero, media were replaced to ENRCD with or without indicated compounds, and media were replaced every other day. At day six, cells were washed with basal media, and then harvested from Matrigel by mechanical disruption in TrypLE Express (ThermoFisher, 12605010) to remove Matrigel and dissociate organoids to single cells. After vigorous pipetting and incubation at 37° C. for 20 min, dissociated organoids were strained through a 35 μm cell strainer into a tube (Falcon, 352235). The cell filtrate was centrifuged again at 300×g for 3 min at 4° C. to pellet the cells. Cell pellets were resuspended in FACS buffer (2% FBS in PBS), and then transferred to an ultra low-bind 96-well plate (Corning, 7007). Cells were stained with Zombie-violet viability dye (BioLegend, 423107) at 100× for viability staining and/or antibody staining solution. FITC-conjugated antibody for lysozyme (Dako, […]) and APC-conjugated antibody for CD24 (BioLegend, 138505) were used at 100× dilution. Flow cytometry was performed using an LSR Fortessa (BD; Koch Institute Flow Cytometry Core at MIT). The data were analyzed using FlowJo v10 software.

[5] = test system: organoids differentiated under ENR+CV, ENR+CD, or ENR; test: Western blotting for LYZ in organoids; details: six days in ENR+CV
From the text: ISC-enriched organoids cultured in 3D Matrigel with ENRCV media were passaged to 24-well plate in 3D Matrigel with ENRCV. At day zero, media were replaced to ENR or ENRCD with or without indicated compounds, and media were replaced every other day. At day six, cells were harvested from Matrigel by mechanical disruption and suspended in basal media. Cell pellets were lysed with Pierce® IP lysis buffer (ThermoFisher, 87787) containing Halt™ Protease Inhibitor Cocktail, EDTA-Free (ThermoFisher, 87785) after 3-minute centrifuge at 300×g at 4° C. Cell extracts were resolved by NuPAGE® SDS-PAGE Gel system (ThermoFisher) and electroblotted onto polyvinylidene difluoride membranes using Criterion™ Blotter (Biorad). The membranes were blocked with 2% Blotting-Grade Blocker (Biorad, 1706404) in TBS-T (50 mM Tris-HCl, 150 mM NaCl, and 0.1% Tween 20, pH 8.0) and then probed with appropriate antibodies. Detection was performed using ECL Select™ Western Blotting Detection Reagent (Amersham, 45-000-999) and ImageQuant LAS4000 (GE Healthcare).

[6] = test system: ENR+CD and ENR organoid populations; test: Population RNA-seq of organoids; details: 3 days of treatment, all media conditions controlled, FDR<0.01
From the text: To further assess the potential interaction of Wnt agonist CHIR99021 (C) and Notch inhibitor DAPT (D) with XPO1 inhibitors, we carried out an experiment where we assessed bulk organoid population transcriptomes (with RNA-seq) from multiple variations on growth media, XPO1 inhibitor, and duration of treatment (FIG. 12A). To characterize the resulting cell phenotypes, we used aggregate scores of geneset enrichment (based on module scoring as implemented in^7) from the in vivo Paneth and related enteroendocrine cell populations (genesets taken from^6). We see that again for both ENR+CD treated (FIG. 12B) and ENR treated (FIG. 12C) organoid populations, XPO1 inhibition drives enrichment in Paneth cell defining genes, principally at 3 days of treatment. […]
Population RNA-seq was performed using a derivative of the Smart-Seq2 protocol for single cells^1,2. […] Libraries were pooled post-Nextera and cleaned using Agencourt AMPure SPRI beads with successive 0.7× and 0.8× ratio SPRIs and sequenced with an Illumina 75 Cycle NextSeq500/550v2 kit (Illumina FC-404-2005) with loading density at 2.2 pM, with paired end 35 cycle read structure. Samples were sequenced at an average read depth of 8.44 million reads per sample and a total of 96 samples. […]

Compound	validation in secondary screen (SSMD above cutoff for both LYZ.NS and LYZ.S) ([1]; 6-day ENR+CD+treatment vs ENR+CD+DMSO, cutoff 0.89, 8 replicates)	LYZ.NS/ATP, early versus full treatment ([1]; ENR+CD, 100 nM)	LYZ.S/ATP, early versus full treatment ([1]; ENR+CD, 100 nM)	improvement in function, early (first 3 days) versus full 6-day treatment, LYZ.NS and LYZ.S assays ([1]; ENR+CD, maximal validated dose)	ATP alone, early versus full treatment [2]	LYZ.NS reading versus ENR+DMSO [3]	Paneth cell representation by flow cytometry [4]	LYZ abundance on a per-mass protein normalized basis (western blot) [5]	identity of the majority of significantly up-regulated genes relative to no treatment (DESeq2) [6]
Cc1[nH]c(/C=C2\C(=O)Nc3ccc(S(=O)(=O)Cc4c(Cl)cccc4Cl)cc32)c(C)c1C(=O)N1CCC[C@@H]1CN1CCCC1 [PHA-665752]	multiple validated doses	significant difference (adj. p<0.05) between early and full	suggestive trend	significantly (adj. p<0.05) lower improvement in function with early treatment versus full	no difference in ATP alone	significantly lower LYZ.NS	–	–	–
NC(=O)/C(=C/n1cnc(-c2cc(C(F)(F)F)cc(C(F)(F)F)c2)n1)c1cncnc1 [KPT-8602]	–	–	–	–	–	–	statistically significant increases in Paneth cell representation	appreciably increase LYZ abundance	known Paneth cell lineage-defining genes
